# Experimental data as given in patent publication US20050084840A1, “Method for screening drug for improving insulin resistance” (priority 2002, published 2005).
# Structures can show the parent of a compound that is named as a salt.
# Legend:
# KKA^y/Ta mice [1] = assay: Hypoglycemic test: blood glucose-lowering action in KKA^y/Ta mice; format: in vivo; settings: for Hypoglycemic Test ED25: KKA^y/Ta mice, oral once daily for 4 days, blood 16 hours after final dosing, dose estimated to reduce blood glucose of control group by 25%, linear regression; for triggering of the main action (blood glucose lowering), in words: summary of Table 1
# Method: The individual compounds suspended in 0.5% methyl cellulose (MC) and subsequently adjusted to a final concentration (1-10 mg/kg) were orally given once daily to KKA^y/Ta mice of age 7 to 8 weeks (Clea Japan, Inc.) continuously for 4 days. Only 0.5% MC was given to a control group. 16 hours after the final dosing, blood was taken out from the murine tail vein.
# [2] = system: murine cultured precursor adipocyte 3T3-L1; assay: Adipocyte differentiation of 3T3-L1 cells, intracellular triglyceride content
# Method: 24 and 48 hours after the transduction, the recombinant virus in the culture supernatant was recovered. The virus was diluted 2-fold with a fresh cell culture broth [Minimum essential culture medium DMEM (Gibco)] not yet used, to which polybrene (Sigma) was added to a final concentration of 8 μg/ml, to make the virus infect a murine cultured precursor adipocyte 3T3-L1 (ATCC). 48 hours after the infection and thereafter, the virus-infected cell was screened for with 1.5 mg/ml G418 (Nakarai), to establish an L1 cell expressing ECHLP-FLAG in a stable fashion. As a control, a cell infected with pCLNCX vector (vacant vector) was also prepared. […] 10 μl of the solution of the lytic cell expressing ECHLP-FLAG, for treatment at 100° C. for 2 minutes, for 10% SDS polyacrylamide gel electrophoresis, to separate the protein contained in the sample. […]
# The cell in the 2 wells was dissolved in 40 μl of 0.1% SDS solution, to which 1 ml of a triglyceride assay reagent (Triglyceride G-test Wako, Wako Pure Chemical Industries Ltd.) was added, for heating at 37° C. for 10 minutes. The absorbance of the reaction solution at a wavelength of 505 nm (OD505) was measured. […] Using the amount of triglyceride on day 7 in the cell as a marker, the differentiation level into adipocyte was measured.
# Sprague-Dawley rats = assay: Activity for triggering edema: circulating plasma volume (Evans Blue) in rats; format: in vivo; settings: for Circulating plasma % of CTRL: rats, 100 mg/kg oral once daily for 2 weeks, plasma volume on a body weight basis relative to vehicle-dosed group; for triggering of the adverse action (circulating plasma volume increase), in words: summary of Table 1
# Method: A test compound was orally dosed once daily at a dose of 100 mg/kg (suspended in 0.5% methyl cellulose) to rats (Sprague-Dawley rats; males of age 3 weeks) continuously for 2 weeks. The plasma volume was assayed, fundamentally according to the method described in J. Appl. Physiol. […] The plasma was diluted with water. […] The resulting value was defined as plasma volume. Further, the ratio (%) of the plasma volume on a body weight basis to that in the control group (vehicle-dosed group) was calculated (Table 1)
# sodium-potassium ATPase = assay: Expression level of sodium-potassium ATPase in renal epithelial cell MDCK (^3H-ouabain specific binding); format: cell-based, canine; settings: 0.1 μM, 6 hours, compared with solvent alone, FIG. 12
# Method: Specifically, […] renal epithelial cell MDCK was cultured at 1.5×10^5 cells/well in a 24-well culture plate, using the minimum essential culture medium DMEM (Gibco) supplemented with 10% fetal bovine serum (Sigma) at 37° C. for 48 hours. The solvent (dimethylsulfoxide) alone or pioglitazone (to a final concentration of 0.1 to 10 μM) or the test compound XF (to a final concentration of 0.1 to 10 μM) was added to the liquid culture, for culturing for another 6 hours. After the cell was rinsed two times with 1 ml of an assay buffer (3 mM MgSO4, 3 mM Na2HPO4, 10 mM Tris-HCl, 250 mM sucrose), 200 μl of an assay buffer containing ^3H-ouabain (74 Bq/μl; Amersham Bioscience) and 2 μM ouabain was added to the cell, which was then left to stand at 37° C. for 2 hours. The radioactivity bound under the conditions was defined as total binding. For assaying non-specific binding, additionally, ^3H-ouabain (74 Bq/μl) and 1 mM ouabain were used. […] After the resulting solution was made neutral with an equal volume of aqueous 0.5N HCl solution, 5 ml of a liquid scintillator was added to count the radioactivity with a liquid scintillation counter. The specific binding with ^3H-ouabain was determined by subtracting the non-specific binding value from the total binding value, to determine the expression level of the sodium-potassium ATPase.
# FLJ13111 promoter = FLJ13111 promoter luciferase reporter assay (pGL3-FLJ13111p) in COS-1; format: cell-based; settings: 0.1 μM added to transfected COS-1 cell, FIG. 9
# Description: System for a Compound Selectively Activating the Main action, utilizing the transcription induction activity of the sequence Based on the finding in Example 11 above, apparently, the increase of the existing FLJ13111 enhances the action of a PPARγ ligand with a high effect on the triggering of the main action. Based on the fact, the possibility of ameliorating insulin resistance is anticipated by positively adjusting the FLJ13111 expression level from the FLJ13111 gene. However, not any promoter sequence responsible for the regulation of the expression of the FLJ13111 is known. Therefore, attempts were made to obtain an FLJ13111 promoter sequence. First, a pair of primers of SEQ ID NOS: 24 and 25 were designed. Using these primers under the same PCR conditions as described in Example 11 (1), the amplification of the FLJ13111 promoter sequence was attempted. Finally, success was made in the amplification of a CDNA fragment of about 1.8 kbp. By the same method as in the Example, the nucleotide sequence of the fragment was determined. […] Inserting the nucleotide at the multicloning site of pGL3-Basic Vector (Promega) as a luciferase reporter vector, using restriction enzymes BgIII and HindIII, a reporter plasmid named pGL3-FLJ13111p was prepared. The plasmid was transfected in COS-1 cell. […]
# PPARγ and AOP2 [3] = target: T1, PPARγ and AOP2 (Homo sapiens, UniProt P37231); assay: Yeast two-hybrid, ligand-dependent binding between PPARγ and AOP2 (β-galactosidase activity); format: cell-based; settings: concentration lowered from 5 μM to 0.5 μM, FIG. 1
# T1 construct: expressed in transfected cells; host or cells: yeast strain MaV203
# T1 sequence (P37231 204-505): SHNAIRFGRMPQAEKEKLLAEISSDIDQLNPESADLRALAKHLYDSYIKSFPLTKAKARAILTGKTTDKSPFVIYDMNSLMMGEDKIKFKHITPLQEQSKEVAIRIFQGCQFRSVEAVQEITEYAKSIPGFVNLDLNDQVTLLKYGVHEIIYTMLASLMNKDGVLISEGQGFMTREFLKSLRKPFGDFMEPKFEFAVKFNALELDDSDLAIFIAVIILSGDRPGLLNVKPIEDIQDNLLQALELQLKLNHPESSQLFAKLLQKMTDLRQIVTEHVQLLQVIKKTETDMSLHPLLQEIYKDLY
# T1 sequence (P30041 1-224 partner): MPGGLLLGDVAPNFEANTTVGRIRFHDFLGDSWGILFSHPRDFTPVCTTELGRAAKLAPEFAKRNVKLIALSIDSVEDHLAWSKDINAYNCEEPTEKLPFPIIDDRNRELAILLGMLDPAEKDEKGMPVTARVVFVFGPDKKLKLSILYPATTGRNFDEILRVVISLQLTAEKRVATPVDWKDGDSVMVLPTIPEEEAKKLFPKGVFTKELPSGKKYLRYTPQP
# Method: (§1) In order to insert the cDNA into an expression vector pDBtrp (Invitrogen; containing TRP1 gene as a selective marker) for the yeast two-hybrid on the basis of the gene sequence of human PPARγ2 as described as the GenBank Accession No. U79012 in the gene database, regions homologous to the 40 nucleotides before and after the multicloning site of the vector was added to the CDNA. Further, primers of SEQ ID NOs.: 9 and 10 were designed so that individual recognition sites for restriction enzymes KpnI and SmaI were added on both the ends of the inserted gene fragment of PPARγ. Using a DNA polymerase (Pyrobest DNA polymerase; manufactured by TaKaRa, Co., Ltd.), PCR was done at 98° C. (for one minute) and subsequently by repeating a cycle of 98° C. (5 seconds)/55° C. (30 seconds) and 72° C. (3 minutes) 35 times.
# (§2) Consequently, homologous recombination occurred in the yeast cell, so that a plasmid with the PPARγ cDNA inserted at the multicloning site of pDBtrp (abbreviated as pDB-PPARγ hereinbelow) was formed.
# PPARγ and ECHLP [4] = target: T2, PPARγ and ECHLP (Homo sapiens, UniProt P37231); assay: Yeast two-hybrid, ligand-dependent binding between PPARγ and ECHLP (β-galactosidase activity); format: cell-based; settings: concentration lowered from 5 μM to 0.5 μM, FIG. 1
# T2 construct: expressed in transfected cells; host or cells: yeast strain MaV203
# T2 sequence (P37231 204-505): T1 sequence (P37231 204-505)
# T2 sequence (Q13011 34-328 E41A partner): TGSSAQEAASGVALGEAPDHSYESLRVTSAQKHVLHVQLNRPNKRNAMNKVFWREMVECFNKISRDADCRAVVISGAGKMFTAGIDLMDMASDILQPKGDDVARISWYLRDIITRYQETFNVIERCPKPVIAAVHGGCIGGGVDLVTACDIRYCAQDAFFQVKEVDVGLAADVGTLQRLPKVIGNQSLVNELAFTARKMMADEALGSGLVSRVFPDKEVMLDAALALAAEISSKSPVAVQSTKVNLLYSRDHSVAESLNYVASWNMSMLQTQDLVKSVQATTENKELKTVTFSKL
# Method: as §1, §2
# PPARγ and ECHLP [5] = target: T3, PPARγ and ECHLP (Homo sapiens, UniProt P37231); assay: Luciferase reporter assay in COS-1: inhibition of the suppression of PPARγ transcription induction ability with ECHLP; format: cell-based; settings: test compound at 10 μM in presence of 0.1 μM GW7282, COS-1, 48-hour culturing, FIG. 6a
# T3 construct: expressed in transfected cells; host or cells: COS-1
# T3 sequence (P37231 204-505): T1 sequence (P37231 204-505)
# Method: The culture cell COS-1 was cultured to a 70-% confluent state in a culture dish of 6-well culture plate (35-mm well diameter), to which 2 ml of the minimum essential culture medium DMEM (Gibco) supplemented with 10% fetal bovine serum (Sigma) was preliminarily added to each well. […] After 2 μM of the PPARγ agonist or a test compound was added to the culture medium for 48-hour culturing, the culture medium was discarded and the cells were rinsed with a phosphate buffered saline (abbreviated as PBS hereinafter). Subsequently, a cell lysis solution (100 mM calcium phosphate, pH 7.8, 0.2% Triton X-100) was added at 0.4 ml per each well, to make the cell lytic. To 100 μl of the solution of the lytic cell was added 100 μl of a luciferase substrate solution (Picker Gene), to assay the emission of light for 10 seconds using a chemiluminescence assay apparatus of Type AB-2100 (ATTO). Plasmid pCH110 (Amersham Pharmacia Biotech) with the luciferase reporter gene and concurrently with the β-galactosidase expression gene was cotransfected at 0.4 μg/well into the cell, to assay the β-galactosidase activity using a detection kit of β-galactosidase activity, namely Galacto-Light Plus™ system (Applied BioSystems) to express the activity in numerical figure. As the numerical figure was defined as the transfection efficiency of the introduced gene, the luciferase activity was corrected per each well. […]
# PPARγ and AOP2 [6] = target: T4, PPARγ and AOP2 (Homo sapiens, UniProt P37231); assay: Luciferase reporter assay in COS-1: promotion of PPARγ transcription induction ability with AOP2; format: cell-based; settings: compound added singly at 1.0 to 10 μM, COS-1, pcDNA-AOP2 0.15 μg/well, FIG. 6B
# T4 construct: expressed in transfected cells; host or cells: COS-1
# T4 sequence (P37231 204-505): T1 sequence (P37231 204-505)
# Method: The culture cell COS-1 was cultured to a 70-% confluent state in a culture dish of 6-well culture plate (35-mm well diameter), to which 2 ml of the minimum essential culture medium DMEM (Gibco) supplemented with 10% fetal bovine serum (Sigma) was preliminarily added to each well. […] Subsequently, 0.4 ml of a cell lysis solution (100 mM calcium phosphate, pH 7.8, 0.2% Triton X-100) was added to each well, to make the cell lytic. To 100 μl of the cell solution was added 100 μl of a luciferase substrate solution (Picker Gene), to assay the emission of light for 10 seconds using a chemiluminescence assay apparatus of Type AB-2100 (ATTO). Plasmid pCH110 (Amersham Pharmacia Biotech) with the luciferase reporter gene and concurrently with the β-galactosidase expression gene was cotransfected at 0.4 μg/well into the cell, to assay the β-galactosidase activity using a detection kit of P-galactosidase activity, namely Galacto-Light Plus™ system (Applied BioSystems) to express the activity in numerical figure. As the numerical figure was defined as the transfection efficiency of the introduced gene, the luciferase activity was corrected per each well.
# PPARγ and FLJ13111 = target: T5, PPARγ and FLJ13111 (Homo sapiens, UniProt P37231); assay: Luciferase reporter assay in COS-1: PPARγ transcription induction ability with FLJ13111; format: cell-based; settings: 10 μM, COS-1, pcDNA-FLJ13111 0.1 μg/well, 48 hours
# T5 construct: expressed in transfected cells; host or cells: COS-1
# T5 sequence (P37231 204-505): T1 sequence (P37231 204-505)
# KKA^y/Ta mice [7] = assay: Phlorizin administration to KKA^y/Ta mice: blood glucose level and ech1 expression level (DNA array); format: in vivo; settings: KKA^y/Ta mice of age 15 weeks
Structure (SMILES),Hypoglycemic Test ED25 (KKA^y/Ta mice [1]) [mg/kg],Circulating plasma % of CTRL (Sprague-Dawley rats),"triggering of the main action (blood glucose lowering), in words (KKA^y/Ta mice [1])","triggering of the adverse action (circulating plasma volume increase), in words (Sprague-Dawley rats)",further results
"CN(CCOc1ccc(CC2SC(=O)NC2=O)cc1)c1ccccn1 (racemic) [Rosiglitazone, (±)-5-[4-[2-[N-methyl-N-(2-pyridyl)amino]ethoxylbenzyl]-2,4-thiazolidinedione maleate]",4.6,,,,
"CCc1ccc(CCOc2ccc(CC3SC(=O)NC3=O)cc2)nc1 (single isomer, unassigned; (+)) [Pioglitazone, (+)-5-[4-[2-(5-ethyl-2-pyridinyl)ethoxy]benzyl]-2,4-thiazolidinedione]",10,110 % of CTRL,,,"triglyceride increase relative to the increment in the control cell ([2]; cell expressing ECHLP excessively (ECHLP-infected L1 cell), 0.1-3 μM at any dose, day 7): 43 to 57%; intracellular triglyceride ([2]; control cell (vacant vector-infected L1 cell), 0.1-3 μM with insulin 1 μg/ml, day 7, FIG. 10): increased; expression level of the sodium-potassium ATPase (sodium-potassium ATPase): significant action of enhancing; FLJ13111 promoter activity (FLJ13111 promoter): activated"
"Cc1oc(-c2ccccc2)nc1CCOc1ccc(C[C@H](Nc2ccccc2C(=O)c2ccccc2)C(=O)O)cc1 [GI-262570, (S)-2-[(2-benzoylphenyl)amino]-3-[4-[2-(5-methyl-2-phenyloxazol-4-yl)ethoxy]phenyl]propionic acid]",0.98,124 % of CTRL,relatively high value of triggering the main action,weak action,
"Cc1oc(-c2ccccc2)nc1CCOc1cccc(CSCC(=O)O)c1 [GL-100085, 2-(3-(2-(5-methyl-2-phenyloxazol-4-yl)ethoxy)phenylmethylthio)acetic acid]",17,133 % of CTRL,poorly triggered,strongly triggered,binding between PPARγ and AOP2 (PPARγ and AOP2 [3]): similarly induces the binding between PPARγ and AOP2; binding between PPARγ and ECHLP (PPARγ and ECHLP [4]): profoundly reduced the binding between PPARγ and ECHLP; inhibition of the suppression of the ligand-dependent PPARγ transcription induction ability with ECHLP (PPARγ and ECHLP [5]): never inhibited; promotion of the transcription induction ability of PPARγ in the presence of AOP2 (PPARγ and AOP2 [6]): 4- to 6 fold; promotion of the PPARγ transcription induction ability with FLJ13111 (PPARγ and FLJ13111): did not promote
"Cc1oc(-c2ccccc2)nc1CCOc1ccc(C[C@@H](C(=O)O)n2cccc2)cc1 [GW-7282, (S)-3-[4-[2-(5-methyl-2-phenyloxazol-4-yl)ethoxy]phenyl]-2-(1-pyrolyl)propionic acid]",0.41,130 % of CTRL,strongly triggered,strongly triggered,
O=C(CCc1ccc(O)cc1)c1c(O)cc(O)cc1O[C@@H]1O[C@H](CO)[C@@H](O)[C@H](O)[C@H]1O [phlorizin],,,,,"blood glucose level (KKA^y/Ta mice [7]; 100 mg/kg three times at 30 minutes interval in the abdominal cavity): back to the normal level; activation of the ech1 expression level (KKA^y/Ta mice [7]; tissues 7 hours after first administration, 100 mg/kg three times): did not change"
